Measured values published in ChEMBL document CHEMBL3885881, “DrugMatrix”.

Species on record: Rattus norvegicus
Assay: DrugMatrix - Regimen: Daily Repeat
Assay type: toxicity, organism-based, Sprague-Dawley
Set-up: regimen Daily Repeat, gender Male, age 6-8 weeks
Conditions: in vivo, po, route oral GAVAGE, […]; for ABSOLUTE BASOPHIL / ABSOLUTE EOSINOPHIL / ABSOLUTE LYMPHOCYTE / ABSOLUTE MONOCYTE / ABSOLUTE SEGMENTED NEUTROPHIL / BASOPHIL / EOSINOPHIL / ERYTHROCYTE COUNT / HEMATOCRIT / HEMOGLOBIN / LEUKOCYTE COUNT / LYMPHOCYTE / MEAN CORPUSCULAR HEMOGLOBIN / MEAN CORPUSCULAR HEMOGLOBIN CONCENTRATION / MONOCYTE / NEUTROPHIL / NUCLEATED RED BLOOD CELLS / PLATELET COUNT: tissue Blood
[1] = 54 mg/kg, 72 h, dose level Low, time 3 day
[2] = 54 mg/kg, 72 h, tissue Plasma, dose level Low, time 3 day
[3] = 54 mg/kg, 120 h, dose level Low, time 5 day
[4] = 54 mg/kg, 120 h, tissue Plasma, dose level Low, time 5 day

With CC(C)Cc1ccc(C(C)C(=O)O)cc1 (centres undefined) [IBUPROFEN] as the molecule, how does the “URIC ACID” value (0 mg/kg, 120 h, tissue Plasma, dose level Control, time 5 day) read?
Its value is 0.63 mg/dL.

And the “ABSOLUTE BASOPHIL” value [1]?
Its value is 0 CELLS/uL.

And the “ABSOLUTE EOSINOPHIL” value [1]?
Its value is 0 CELLS/uL.

What about the “ABSOLUTE LYMPHOCYTE” value [1] of the same molecule?
The value was 9143 CELLS/uL.

What about the “ABSOLUTE MONOCYTE” value [1] of the same molecule?
The value was 146.33 CELLS/uL.

And the “ABSOLUTE SEGMENTED NEUTROPHIL” value [1]?
The value was 1110.67 CELLS/uL.

What about the BASOPHIL [1] of the same molecule?
Its BASOPHIL is 0%.

And the EOSINOPHIL [1]?
Its EOSINOPHIL is 0%.

And the “ERYTHROCYTE COUNT” value [1]?
Its value is 5.12 x10E6/uL.

And the HEMATOCRIT [1]?
The HEMATOCRIT was 32.67%.

What about the HEMOGLOBIN [1] of the same molecule?
Its HEMOGLOBIN is 12.97 G/DL.

And the “LEUKOCYTE COUNT” value [1]?
Its value is 10.4 x10E3/uL.

And the LYMPHOCYTE [1]?
The LYMPHOCYTE was 88%.

What about the “MEAN CORPUSCULAR HEMOGLOBIN” value [1] of the same molecule?
The value was 25.37 pg.

What about the “MEAN CORPUSCULAR HEMOGLOBIN CONCENTRATION” value [1] of the same molecule?
The value was 39.7 G/DL.

What about the MONOCYTE [1] of the same molecule?
Its MONOCYTE is 1.33%.

And the NEUTROPHIL [1]?
Its NEUTROPHIL is 10.67%.

And the “NUCLEATED RED BLOOD CELLS” value [1]?
Its value is 0 /100WBC.

And the “PLATELET COUNT” value [1]?
The value was 1145.67 x10E3/uL.

What about the “ALANINE AMINOTRANSFERASE” value [2] of the same molecule?
The value was 89.33 u/L.

What about the ALBUMIN [2] of the same molecule?
Its ALBUMIN is 4 G/DL.

What about the “ALKALINE PHOSPHATASE” value [2] of the same molecule?
The value was 470.33 u/L.

What about the “ASPARTATE AMINOTRANSFERASE” value [2] of the same molecule?
Its value is 89.33 u/L.

What about the “BLOOD UREA NITROGEN” value [2] of the same molecule?
Its value is 14.33 mg/dL.

And the “CARBON DIOXIDE” value [2]?
Its value is 40.33 mmol/L.

What about the CHLORIDE [2] of the same molecule?
The CHLORIDE was 98 MEQ/L.

And the CHOLESTEROL [2]?
The CHOLESTEROL was 76.67 mg/dL.

And the “CREATINE PHOSPHOKINASE” value [2]?
Its value is 208.67 u/L.

What about the CREATININE [2] of the same molecule?
The CREATININE was 0.13 mg/dL.

What about the GLUCOSE [2] of the same molecule?
Its GLUCOSE is 160.67 mg/dL.

What about the “LACTATE DEHYDROGENASE” value [2] of the same molecule?
The value was 55 u/L.

And the LIPASE [2]?
Its LIPASE is 10.67 u/L.

What about the PHOSPHORUS [2] of the same molecule?
Its PHOSPHORUS is 9.53 mg/dL.

What about the POTASSIUM [2] of the same molecule?
Its POTASSIUM is 5.26 MEQ/L.

And the SODIUM [2]?
The SODIUM was 143.43 MEQ/L.

What about the “TOTAL BILIRUBIN” value [2] of the same molecule?
Its value is 0.2 mg/dL.

And the “TOTAL PROTEIN” value [2]?
The value was 5.9 G/DL.

What about the “URIC ACID” value [2] of the same molecule?
Its value is 0.37 mg/dL.

What about the “ABSOLUTE BASOPHIL” value [3] of the same molecule?
Its value is 0 CELLS/uL.

What about the “ABSOLUTE EOSINOPHIL” value [3] of the same molecule?
The value was 0 CELLS/uL.

What about the “ABSOLUTE LYMPHOCYTE” value [3] of the same molecule?
Its value is 9058.67 CELLS/uL.

What about the “ABSOLUTE MONOCYTE” value [3] of the same molecule?
Its value is 185 CELLS/uL.

What about the “ABSOLUTE SEGMENTED NEUTROPHIL” value [3] of the same molecule?
The value was 289.67 CELLS/uL.

What about the BASOPHIL [3] of the same molecule?
The BASOPHIL was 0%.

And the EOSINOPHIL [3]?
The EOSINOPHIL was 0%.

What about the “ERYTHROCYTE COUNT” value [3] of the same molecule?
The value was 5.22 x10E6/uL.

And the HEMATOCRIT [3]?
The HEMATOCRIT was 32.87%.

What about the HEMOGLOBIN [3] of the same molecule?
Its HEMOGLOBIN is 13 G/DL.

What about the “LEUKOCYTE COUNT” value [3] of the same molecule?
The value was 9.53 x10E3/uL.

And the LYMPHOCYTE [3]?
Its LYMPHOCYTE is 95.33%.

And the “MEAN CORPUSCULAR HEMOGLOBIN” value [3]?
Its value is 24.87 pg.

What about the “MEAN CORPUSCULAR HEMOGLOBIN CONCENTRATION” value [3] of the same molecule?
Its value is 39.57 G/DL.

And the MONOCYTE [3]?
The MONOCYTE was 1.67%.

And the NEUTROPHIL [3]?
Its NEUTROPHIL is 3%.

What about the “NUCLEATED RED BLOOD CELLS” value [3] of the same molecule?
Its value is 0 /100WBC.

What about the “PLATELET COUNT” value [3] of the same molecule?
Its value is 1110.33 x10E3/uL.

What about the “ALANINE AMINOTRANSFERASE” value [4] of the same molecule?
The value was 65.67 u/L.

What about the ALBUMIN [4] of the same molecule?
Its ALBUMIN is 3.9 G/DL.

And the “ALKALINE PHOSPHATASE” value [4]?
Its value is 301 u/L.

And the “ASPARTATE AMINOTRANSFERASE” value [4]?
The value was 84.67 u/L.

What about the “BLOOD UREA NITROGEN” value [4] of the same molecule?
Its value is 12.67 mg/dL.

And the “CARBON DIOXIDE” value [4]?
Its value is 28.67 mmol/L.

And the CHLORIDE [4]?
Its CHLORIDE is 103.67 MEQ/L.

What about the CHOLESTEROL [4] of the same molecule?
The CHOLESTEROL was 69.67 mg/dL.

And the “CREATINE PHOSPHOKINASE” value [4]?
The value was 213.67 u/L.

And the CREATININE [4]?
Its CREATININE is 0.23 mg/dL.

What about the GLUCOSE [4] of the same molecule?
The GLUCOSE was 164 mg/dL.

What about the LIPASE [4] of the same molecule?
Its LIPASE is 11 u/L.

And the PHOSPHORUS [4]?
Its PHOSPHORUS is 11.1 mg/dL.

And the POTASSIUM [4]?
The POTASSIUM was 5.49 MEQ/L.

And the SODIUM [4]?
The SODIUM was 144.2 MEQ/L.

And the “TOTAL BILIRUBIN” value [4]?
Its value is 0.13 mg/dL.

And the “TOTAL PROTEIN” value [4]?
The value was 5.87 G/DL.

And the “URIC ACID” value [4]?
Its value is 0.57 mg/dL.
